From patent US9497970B2, “Pesticide compounds” (priority 2013, dated 2016)

Legend:
Type in all cases: in vivo
[1] = test system: Mediterranean Fruitfly (Ceratitis capitata); assay: B.6 Mediterranean Fruitfly (Ceratitis capitata), microtiter plate insect diet; details: 120 h, 800 ppm, sprayed onto insect diet, 5 days, in comparison with untreated controls, read-out: mortality (egg and larval)
Method in brief: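 Insect diet with 50-80 C. capitata eggs sprayed with compounds formulated in 75% water/25% DMSO, at different concentrations, two replications. Incubation at about 28±1° C and 80±5% relative humidity for 5 days, then egg and larval mortality assessed visually.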

[2] = test system: Boll Weevil (Anthonomus grandis); assay: B.3 Boll Weevil (Anthonomus grandis), microtiter plate insect diet; details: 120 h, 800 ppm, sprayed onto insect diet, 5 days, in comparison with untreated controls, read-out: mortality (egg and larval)
Method in brief: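 Compounds in 25% DMSO/water sprayed at several concentrations onto insect diet in microtiter wells holding 5–10 A. grandis eggs, two replicates. Plates kept 5 days at about 25±1 °C and 75±5% RH. Egg and larval mortality scored visually.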

[3] = test system: Green Peach Aphid (Myzus persicae); assay: B.9 Green Peach Aphid (Myzus persicae), sprayed bell pepper plants; details: 120 h, infested bell pepper plants sprayed, after 5 days, in comparison with untreated controls
Procedure: B.9 Green Peach Aphid (Myzus persicae)
(§1) The active compounds were formulated by a Tecan liquid handler in 100% cyclohexa none as a 10,000 ppm solution supplied in tubes. The 10,000 ppm solution was serially diluted in 100% cyclohexanone to make interim solutions. These served as stock solutions for which final dilutions were made by the Tecan in 50% acetone:50% water (v/v) into 5 or 10 ml glass vials. A nonionic surfactant (Kinetic®) was included in the solution at a volume of 0.01% (v/v). The vials were then inserted into an automated electrostatic sprayer equipped with an atomizing nozzle for application to plants/insects.
Bell pepper plants at the first true-leaf stage were infested prior to treatment by placing heavily infested leaves from the main colony on top of the treatment plants. Aphids were allowed to transfer overnight to accomplish an infestation of 30-50 aphids per plant and the host leaves were removed. The infested plants were then sprayed by an automated electrostatic plant sprayer equipped with an atomizing spray nozzle. The plants were dried in the sprayer fume hood, removed, and then maintained in a growth room under fluorescent lighting in a 24-hr photoperiod at about 25° C. and about 20-40% relative humidity. Aphid mortality on the treated plants, relative to mortality on untreated control plants, was determined after 5 days.

[4] = test system: Diamond Back Moth (Plutella xylostella); assay: B.1 Diamond Back Moth (Plutella xylostella), cabbage leaf dip; details: foliar, 500 ppm, 3rd instar larvae on dipped cabbage leaves, 72 hours after treatment, in comparison with untreated controls, read-out: mortality
Method in brief: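 Cabbage leaves dipped in compound in 1:1 water:acetone with 0.01% Kinetic HV surfactant, air-dried, then infested with ten 3rd-instar larvae on moist filter paper. Mortality scored at 72 h after treatment; feeding damage rated on a 0-100% scale.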

[5] = test system: Tobacco Budworm (Heliothis virescens); assay: B.7 Tobacco Budworm (Heliothis virescens) I, microtiter plate insect diet; details: 120 h, 800 ppm, sprayed onto insect diet, 5 days, in comparison with untreated controls, read-out: mortality (egg and larval)
Method in brief: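 96-well plates with insect diet and 15-25 H. virescens eggs; compounds in 75% water/25% DMSO sprayed onto diet at several concentrations, two replicates. Plates held at about 28±1° C. and 80±5% relative humidity for 5 days, then egg and larval mortality scored visually.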

[6] = test system: Yellow Fever Mosquito (Aedes aegypti); assay: whole plant or invertebrate; details: 48 h, freshly hatched larvae in tap water, 2 days, in comparison with untreated controls, read-out: mortality (larval)
Procedure: B.11 Yellow Fever Mosquito (Aedes aegypti)
For evaluating control of yellow fever mosquito (Aedes aegypti) the test unit consisted of 96-well-microtiter plates containing 200 μl of tap water per well and 5-15 freshly hatched A. aegypti larvae.
The active compounds were formulated using a solution containing 75% (v/v) water and 25% (v/v) DMSO. Different concentrations of formulated compounds or mixtures were sprayed onto the insect diet at 2.5 μl, using a custom built micro atomizer, at two replications.

[7] = test system: Orchid thrips (dichromothrips corbetti); assay: B.12 Orchid thrips (dichromothrips corbetti), floral-immersion technique; details: adult thrips on dipped orchid petals, 72 hours after treatment, in comparison with untreated controls
Procedure: B.12 Orchid thrips (dichromothrips corbetti)
Dichromothrips corbetti adults used for bioassay were obtained from a colony maintained continuously under laboratory conditions. For testing purposes, the test compound is diluted in a 1:1 mixture of acetone:water (vol:vol), plus Kinetic HV at a rate of 0.01% v/v.
Thrips potency of each compound was evaluated by using a floral-immersion technique. All petals of individual, intact orchid flowers were dipped into treatment solution and allowed to dry in Petri dishes. Treated petals were placed into individual resealable plastic along with about 20 adult thrips. All test arenas were held under continuous light and a temperature of about 28° C. for duration of the assay. After 3 days, the numbers of live thrips were counted on each petal. The percent mortality was recorded 72 hours after treatment.

[8] = test system: Southern Armyworm (Spodoptera eridania), 2nd Instar Larvae; assay: B.10 Southern Armyworm (Spodoptera eridania), 2nd Instar Larvae, sprayed lima bean plants; details: 96 h, 300 ppm, larvae on sprayed lima bean plants, 4 days after treatment, in comparison with untreated controls, read-out: mortality
Procedure: B.10 Southern Armyworm (Spodoptera eridania), 2nd Instar Larvae
as §1, with “cyclohexanone” for “cyclohexa none”
Lima bean plants (variety Sieva) were grown 2 plants to a pot and selected for treatment at the 1st true leaf stage. Test solutions were sprayed onto the foliage by an automated electrostatic plant sprayer equipped with an atomizing spray nozzle. The plants were dried in the sprayer fume hood and then removed from the sprayer. Each pot was placed into perforated plastic bags with a zip closure. About 10 to 11 armyworm larvae were placed into the bag and the bags zipped closed. Test plants were maintained in a growth room at about 25° C. and about 20-40% relative humidity for 4 days, avoiding direct exposure to fluorescent light (24 hour photoperiod) to prevent trapping of heat inside the bags. Mortality and reduced feeding were assessed 4 days after treatment, compared to untreated control plants.

Cc1ccc(NC(=S)N/N=C/c2ccc3c(ccc4c3ncn4-c3ccc(OC(F)(F)F)cc3)c2)c(C)c1 [C-2, 1-(2,4-dimethylphenyl)-3-[(E)-[3-[4-(trifluoromethoxy)phenyl]benzo[e]benzimidazol-7-yl]methyleneamino] thiourea]
≥ 75%: mortality at 800 ppm [1] | mortality at 800 ppm [2] | mortality at 800 ppm [3] | mortality at 500 ppm [4] | mortality at 800 ppm [5]

Cc1cc(Br)cc(C)c1NC(=S)N/N=C/c1ccc2c(ccc3c2ncn3-c2ccc(OC(F)(F)F)cc2)c1 [C-4, 1-(4-bromo-2,6-dimethyl-phenyl)-3-[(E)-[3-[4-(trifluoromethoxy)phenyl]benzo[e]benzimidazol-7-yl]methyleneamino]thiourea]
≥ 75%: mortality at 800 ppm [1] | mortality at 800 ppm [2] | mortality at 800 ppm [3] | mortality at 800 ppm [6] | mortality at 500 ppm [7] | mortality at 500 ppm [4] | mortality at 800 ppm [5]

Cc1cccc(C)c1NC(=S)N/N=C/c1ccc2c(c1)CCc1c-2noc1-c1ccc(OC(F)(F)F)cc1 [C-7, 1-(2,6-dimethylphenyl)-3-[(E)-[3-[4-(trifluoromethoxy)phenyl]-4,5-dihydrobenzo[g][2,1]benzoxazol-7-yl]methyleneamino]thiourea]
≥ 75%: mortality at 800 ppm [3] | mortality at 500 ppm [7] | mortality at 800 ppm [5]

COc1ccc(C)cc1NC(=S)N/N=C/c1ccc2c(ccc3c2ncn3-c2ccc(OC(F)(F)F)cc2)c1 [C-25, 1-(2-methoxy-5-methyl-phenyl)-3-[(E)-[3-[4-(trifluoromethoxy)phenyl]benzo [e]benzimidazol-7-yl]methyleneamino] thiourea]
≥ 75%: mortality at 800 ppm [1] | mortality at 800 ppm [2] | mortality at 800 ppm [3] | mortality at 300 ppm [8]

O=[N+]([O-])c1ccccc1NC(=S)N/N=C/c1ccc2c(ccc3c2ncn3-c2ccc(OC(F)(F)F)cc2)c1 [C-31, 3-(2-nitrophenyl)-1-[[3-[4-(trifluoromethoxy)phenyl]-9aH-benzo[e]benzimidazol-7-ylidene]methylimino] isothiourea]
≥ 75%: mortality at 800 ppm [2] | mortality at 800 ppm [3] | mortality at 800 ppm [5]

FC(F)(F)Oc1ccc(-n2nnc3c4ccc(/C=N/NC(=S)Nc5c(Cl)cccc5Cl)cc4ccc32)cc1 [C-57, 1-(2,6-dichlorophenyl)-3-[(E)-[3-[4-(trifluoromethoxy)phenyl]benzo[e]benzotriazol-7-yl]methyleneamino] thiourea]
≥ 75%: mortality at 800 ppm [3]

C/C(=N\NC(=S)Nc1c(C)cccc1C)c1ccc2c(ccc3c2ncn3-c2ccc(OC(F)(F)F)cc2)c1 [C-58, 1-(2,6-dimethylphenyl)-3-[(E)-1-[3-[4-(trifluoromethoxy)phenyl]benzo[e]benzimidazol-7-yl]ethylideneamino]thiourea]
≥ 75%: mortality at 800 ppm [1] | mortality at 800 ppm [2] | mortality at 800 ppm [3] | mortality at 300 ppm [8] | mortality at 800 ppm [6] | mortality at 500 ppm [7] | mortality at 500 ppm [4] | mortality at 800 ppm [5]

Cc1cccc(Cl)c1NC(=S)N/N=C/c1ccc2c(ccc3c2ncn3-c2ccc(OC(F)(F)F)cc2)c1 [C-79, 1-(2-chloro-6-methyl-phenyl)-3-[(E)-[3-[4-(trifluoromethoxy)phenyl]benzo[e]benzimidazol-7-yl]methyleneamino] thiourea]
≥ 75%: mortality at 800 ppm [1] | mortality at 800 ppm [2] | mortality at 800 ppm [3] | mortality at 300 ppm [8] | mortality at 800 ppm [6] | mortality at 500 ppm [7] | mortality at 500 ppm [4] | mortality at 800 ppm [5]

Cc1cccc(C)c1NC(=S)N/N=C/c1ccc2c(ccc3c(-c4ccc(OC(F)(F)F)cc4)onc32)c1 [C-84, 1-(2,6-dimethylphenyl)-3-[(E)-[3-[4-(trifluoromethoxy)phenyl]benzo[g][2,1]benzoxazol-7-yl]methyleneamino] thiourea]
≥ 75%: mortality at 800 ppm [1] | mortality at 800 ppm [3] | mortality at 800 ppm [5]

CCc1cccc(C)c1NC(=S)N/N=C/c1ccc2c(ccc3c(-c4ccc(OC(F)(F)F)cc4)n(C)nc32)c1 [C-92, 1-(2-ethyl-6-methyl-phenyl)-3-[(E)-[2-methyl-3-[4-(trifluoromethoxy)phenyl]benzo[g]indazol-7-yl]methyleneamino] thiourea]
≥ 75%: mortality at 800 ppm [1] | mortality at 800 ppm [2] | mortality at 800 ppm [3] | mortality at 800 ppm [6] | mortality at 500 ppm [7] | mortality at 500 ppm [4] | mortality at 800 ppm [5]

Cc1cccc(C)c1NC(=S)N/N=C/c1ccc2c(c1)CCc1c-2nn(C)c1-c1ccc(OC(F)(F)F)cc1 [C-107, 1-(2,6-dimethylphenyl)-3-[(E)-[2-methyl-3-[4-(trifluoromethoxy)phenyl]-4,5-dihydrobenzo[g]indazol-7-yl]methyleneamino]thiourea]
≥ 75%: mortality at 800 ppm [1] | mortality at 800 ppm [2] | mortality at 300 ppm [8] | mortality at 800 ppm [6] | mortality at 500 ppm [7] | mortality at 500 ppm [4] | mortality at 800 ppm [5]

Cc1cccc(C)c1NC(=S)N/N=C/c1ccc2c(ccc3c2ncn3-c2ccc(C(F)(F)C(F)(F)F)cc2)c1 [C-110, 1-(2,6-dimethylphenyl)-3-[(E)-[3-[4-(1,1,2,2,2-pentafluoroethyl)phenyl]benzo[e]benzimidazol-7-yl]methyleneamino]thiourea]
≥ 75%: mortality at 800 ppm [1] | mortality at 800 ppm [2] | mortality at 800 ppm [3] | mortality at 800 ppm [6] | mortality at 800 ppm [5]

Cc1cccc(C)c1NC(=S)N/N=C/c1ccc2c(ccc3c2ncn3-c2ccc(C(F)(F)F)cc2F)c1 [C-113, 1-(2,6-dimethylphenyl)-3-[[3-[2-fluoro-4-(trifluoromethyl)phenyl]-3aH-benzo[e]benzimidazol-7-ylidene]methylimino]thiourea]
≥ 75%: mortality at 800 ppm [1] | mortality at 800 ppm [2] | mortality at 800 ppm [3] | mortality at 800 ppm [6] | mortality at 800 ppm [5]
